SMILES strings stand for the structures. Inconclusive results are not listed. Active and inactive are the calls of the source.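 The calls were made as follows: active = EC50 no higher than ten times the top concentration tested; inconclusive = flat fit with growth inhibition between 30% and 70%, or poor fit; inactive = EC50 above ten times the top concentration tested.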 Some results are limits rather than exact numbers.

From PubChem BioAssay AID434935 (Broad Institute, 2010) come the findings set out here.

The assay deals with C. albicans CaCi-8 + fluconazole, Alamar Blue growth, 48 h. Briefly: resistant C. albicans growth reduction under fluconazole – CaCi-8 strain, Alamar Blue fluorescence, SAR follow-up (AID 434935).
In the case of `Cc1ccc(Nc2nc(N)c([N+](=O)[O-])c(N3CCC(C)CC3)n2)cc1C`, the EC50 is 6150 nM.
The value for `Cc1ccc(/C=C/C(=O)c2ccccc(=O)c2O)cc1C` was > 26000 nM (inactive); that for `O=C(Nc1nc(-c2ccccn2)cs1)c1ccc(Br)s1` was 2360 nM; that for `CCOC(=O)N1C(=O)C2(CCCCC2)N(c2ccc(C)cc2)C1=S` was 1360 nM.
In the case of `CC(C)COCc1ccc(O)c2ncccc12`, the EC50 was 7460 nM.
As for `O=c1c2cc(Br)ccc2nc(-c2cccc(C(F)(F)F)c2)n1O`, the EC50 is 3100 nM.
In the case of `Cc1ccc(C(=O)Nc2cccc(-c3cn4ccccc4n3)c2)cc1`, the EC50 was 2780 nM.
Consider `Nc1nccnc1C(=O)Nc1nnc(SCc2ccc(Cl)cc2)s1`, for which the EC50 is 1430 nM.
The value for `O=C(NNC1=C(C(=O)C(F)(F)F)CCC1)c1ccc(Cl)cc1` was 6840 nM.
In the case of `CCCC(=O)NC(c1ccc(Cl)cc1)c1ccc2cccnc2c1O` (centres undefined), the EC50 is 607 nM.
The value for `O=C(Nc1nnc(SCc2ccc(Cl)cc2)s1)c1ccc2ccccc2n1` was 771 nM; that for `Clc1ccc2c(c1)C(c1cccs1)=NNC(c1cccnc1)=N2` was < 100 nM.
As for `COc1ccc(-c2nnc(NC(=O)c3ccc(F)cc3)o2)cc1`, the EC50 is 146 nM.
For the compound `O=C(Nc1nnc(-c2ccc3c(c2)CCCC3)o1)c1ccc(Cl)cc1Cl`, the EC50 is 152 nM.
`Cc1ccc(C(=O)c2coc3c2C(=O)C(=O)c2ccccc2-3)cc1`: the EC50 is 226 nM.
Then `Cc1oc2c(F)c(F)c(F)c(F)c2c1S(=O)(=O)Nc1cccc(C(F)(F)F)c1`, with 9310 nM.
`COc1ccc(-n2nc(C(=O)NCC(=O)N3CCN(c4ccccc4)CC3)c3ccccc3c2=O)c(OC)c1`: the EC50 was 1160 nM.
As to `COc1cc2c(cc1NC(=O)c1ccco1)CCCC2`, the EC50 was < 100 nM.
Then `O=C(Nc1sc2c(c1C(=O)c1ccc(Cl)cc1)CCCC2)c1cccnc1`, with 938 nM.
Consider `CCCC(=O)NC(c1ccccc1)c1ccc2cccnc2c1O` (centres undefined), for which the EC50 was 1110 nM.
On to `CC(C)N1CCc2c(sc(NC(=O)c3nc4ccccc4s3)c2C(N)=O)C1`, for which the 50% effective concentration (EC50) was 600 nM.
Regarding `O=C(Nc1nnc(CCc2ccccc2)s1)c1ccco1`, the EC50 is 3110 nM.
As for `Cc1nc2ccccc2cc1OCc1ccc(F)cc1`, the EC50 was 7270 nM.
For the compound `O=C(Oc1c(Cl)cc(Cl)c2cccnc12)c1cccs1`, the EC50 was 192 nM.
